# Assay results taken from ChEMBL document CHEMBL4706520, “Development of disulfide-derived fructose-1,6-bisphosphatase (FBPase) covalent inhibitors for the treatment of type 2 diabetes” (Eur J Med Chem, 2020).
# Assays:
# [1] = molecular target: T1, Fructose-1,6-bisphosphatase 1 (Homo sapiens, UniProt P09467); test: Inhibition of wild-type full-length human liver FBPase expressed in Escherichia coli BL21 (DE3) using FBP as substrate by malachite green dye based assay; type: tissue-based
# T1 sequence (P09467 whole entry): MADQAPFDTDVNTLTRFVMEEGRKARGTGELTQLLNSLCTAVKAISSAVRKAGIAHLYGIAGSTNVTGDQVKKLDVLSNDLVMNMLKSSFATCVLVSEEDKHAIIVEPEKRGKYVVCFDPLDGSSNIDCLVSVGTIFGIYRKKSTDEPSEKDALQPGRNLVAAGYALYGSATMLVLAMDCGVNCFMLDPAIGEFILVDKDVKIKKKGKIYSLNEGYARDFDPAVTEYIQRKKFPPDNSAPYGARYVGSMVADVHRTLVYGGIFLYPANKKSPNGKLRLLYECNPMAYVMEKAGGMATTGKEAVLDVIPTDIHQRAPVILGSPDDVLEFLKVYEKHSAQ
# [2] = Toxicity in intraperitonially dosed db/db mouse at high dose by long-term safety study; type: organism-based; settings: in vivo, ip
# [3] = test system: Mus musculus; test: Glucose lowering activity in 12 hrs fasting normoglycemic ICR mouse assessed as reduction in blood glucose level at 25 mg/kg, ip measured upto 8 hrs by glucometer; type: functional; settings: time hrs <=8
# [4] = molecular target: Fructose-1,6-bisphosphatase 1 (Homo sapiens, UniProt P09467, N126A); test: Covalent inhibition of FBPase N125A mutant (unknown origin) measured upto 45 mins by UV-visible spectrometry analysis
# [5] = test system: HepG2; test: Cytotoxicity against human HepG2 cells assessed as reduction in cell viability measured after 48 hrs by cell counting kit-8 assay; type: functional, cell-based; settings: HepG2, 48 h
# [6] = molecular target: Fructose-1,6-bisphosphatase 1 (Homo sapiens, UniProt P09467, C93S); test: Covalent inhibition of FBPase C92S mutant (unknown origin) measured upto 45 mins by UV-visible spectrometry analysis
# [7] = molecular target: Fructose-1,6-bisphosphatase 1 (Homo sapiens, UniProt P09467, D128A); test: Covalent inhibition of FBPase D127A mutant (unknown origin) measured upto 45 mins by UV-visible spectrometry analysis
# [8] = test system: Mus musculus; test: Suppression of blood glucose concentration in 12 hrs fasted db/db mouse model at 25 mg/kg, ip measured upto 120 mins after oral administration of glucose at 2 g/kg for 60 min by oral glucose tolerance test; type: functional
# [9] = Toxicity in intraperitonially dosed ICR mouse at high dose by long-term safety study; type: organism-based; settings: in vivo, ip
# [10] = molecular target: Fructose-1,6-bisphosphatase 1 (Homo sapiens, UniProt P09467, Y259A); test: Covalent inhibition of FBPase Y258A mutant (unknown origin) measured upto 45 mins by UV-visible spectrometry analysis
# [11] = test system: Mus musculus; test: Hypoglycemic activity in 2 hrs fasted ICR mouse model assessed as reduction in blood glucose AUC (0 to 120 mins) at 12.5 mg/kg, ip pretreated for 60 mins followed by glucose challenge and measured up to 120 mins by oral glucose tolerance test; type: functional; settings: 3 h, time 180 min
# [12] = test system: Mus musculus; test: Hypoglycemic activity in 2 hrs fasted ICR mouse model assessed as reduction in blood glucose AUC (0 to 120 mins) at 25 mg/kg, ip pretreated for 60 mins followed by glucose challenge and measured up to 120 mins by oral glucose tolerance test; type: functional; settings: 3 h, time 180 min
# [13] = molecular target: T1, Fructose-1,6-bisphosphatase 1; test: Covalent inhibition of FBPase WT (unknown origin) measured for 45 mins by UV-visible spectrometry analysis
# [14] = molecular target: T1, Fructose-1,6-bisphosphatase 1; test: Covalent inhibition of FBPase WT (unknown origin) measured 15 to 45 mins by UV-visible spectrometry analysis
# [15] = Inhibition of gluconeogenesis in C57BLKS mouse primary hepatocytes assessed as inhibition of glucose output at 100 umol/L measured after 6 hrs relative to control; type: functional; settings: Hepatocyte, dose 100 µmol/L
# [16] = molecular target: T1, Fructose-1,6-bisphosphatase 1; test: Covalent inhibition of FBPase R243A mutant (unknown origin) measured upto 45 mins by UV-visible spectrometry analysis
# [17] = molecular target: Fructose-1,6-bisphosphatase 1 (Homo sapiens, UniProt P09467, C39S); test: Covalent inhibition of FBPase C38S mutant (unknown origin) measured upto 45 mins by UV-visible spectrometry analysis
# [18] = molecular target: Fructose-1,6-bisphosphatase 1 (Homo sapiens, UniProt P09467, S125A); test: Covalent inhibition of FBPase S124A mutant (unknown origin) measured upto 45 mins by UV-visible spectrometry analysis
# [19] = molecular target: Fructose-1,6-bisphosphatase 1 (Homo sapiens, UniProt P09467, C129S); test: Covalent inhibition of FBPase C128S mutant (unknown origin) measured upto 45 mins by UV-visible spectrometry analysis
# [20] = molecular target: Fructose-1,6-bisphosphatase 1 (Homo sapiens, UniProt P09467, C117S); test: Covalent inhibition of FBPase C116S mutant (unknown origin) measured upto 45 mins by UV-visible spectrometry analysis
# [21] = molecular target: Fructose-1,6-bisphosphatase 1 (Homo sapiens, UniProt P09467, R255A); test: Covalent inhibition of FBPase R254A mutant (unknown origin) measured upto 45 mins by UV-visible spectrometry analysis
# [22] = molecular target: Fructose-1,6-bisphosphatase 1 (Homo sapiens, UniProt P09467, C282S); test: Covalent inhibition of FBPase C281S mutant (unknown origin) measured upto 45 mins by UV-visible spectrometry analysis
# [23] = test system: Mus musculus; test: Glucose lowering activity in 12 hrs fasting normoglycemic ICR mouse assessed as time for maximum blood glucose reduction at 25 to 50 mg/kg, ip by glucometer; type: functional; settings: dose 25-50 mg/kg
# [24] = molecular target: Fructose-1,6-bisphosphatase 1 (Homo sapiens, UniProt P09467, C180S); test: Covalent inhibition of FBPase C179S mutant (unknown origin) measured upto 45 mins by UV-visible spectrometry analysis
# [25] = test system: Hepatocyte; test: Cytotoxicity against mouse primary hepatocytes assessed as reduction in cell viability measured after 6 hrs by SRB assay; type: cell-based
# [26] = In vivo inhibition of FBPase activity in 12 hrs fasted ICR mouse liver assessed as reduction in blood glucose level at 25 mg/kg, ip administered for 4 hrs and measured after 4 hrs; type: functional; settings: time 8 hrs
# [27] = test system: Mus musculus; test: Glucose lowering activity in 12 hrs fasting normoglycemic ICR mouse assessed as reduction in blood glucose level at 50 mg/kg, ip measured upto 8 hrs by glucometer; type: functional; settings: time hrs <=8
# Chain of Fructose-1,6-bisphosphatase 1 (Homo sapiens, UniProt P09467, D128A) (P09467 2-338 D128A limits assumed): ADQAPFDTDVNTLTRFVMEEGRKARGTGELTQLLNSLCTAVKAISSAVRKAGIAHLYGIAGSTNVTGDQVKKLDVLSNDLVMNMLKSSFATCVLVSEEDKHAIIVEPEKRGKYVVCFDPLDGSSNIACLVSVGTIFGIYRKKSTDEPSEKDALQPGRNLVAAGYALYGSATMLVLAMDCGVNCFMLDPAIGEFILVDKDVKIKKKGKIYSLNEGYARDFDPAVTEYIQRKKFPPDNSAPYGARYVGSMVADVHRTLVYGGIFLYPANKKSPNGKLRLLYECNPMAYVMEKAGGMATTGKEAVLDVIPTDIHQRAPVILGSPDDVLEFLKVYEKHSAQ
# Chain of Fructose-1,6-bisphosphatase 1 (Homo sapiens, UniProt P09467, C282S) (P09467 2-338 C282S limits assumed): as the sequence (P09467 2-338 D128A limits assumed) above, with A127D, C281S counted along it
# Chain of Fructose-1,6-bisphosphatase 1 (Homo sapiens, UniProt P09467, S125A) (P09467 2-338 S125A limits assumed): as the sequence (P09467 2-338 D128A limits assumed) above, with S124A, A127D counted along it
# Chain of Fructose-1,6-bisphosphatase 1 (Homo sapiens, UniProt P09467, C117S) (P09467 2-338 C117S limits assumed): as the sequence (P09467 2-338 D128A limits assumed) above, with C116S, A127D counted along it
# Chain of Fructose-1,6-bisphosphatase 1 (Homo sapiens, UniProt P09467, C39S) (P09467 2-338 C39S limits assumed): as the sequence (P09467 2-338 D128A limits assumed) above, with C38S, A127D counted along it
# Chain of Fructose-1,6-bisphosphatase 1 (Homo sapiens, UniProt P09467, C129S) (P09467 2-338 C129S limits assumed): as the sequence (P09467 2-338 D128A limits assumed) above, with A127D, C128S counted along it
# Chain of Fructose-1,6-bisphosphatase 1 (Homo sapiens, UniProt P09467, N126A) (P09467 2-338 N126A limits assumed): as the sequence (P09467 2-338 D128A limits assumed) above, with N125A, A127D counted along it
# Chain of Fructose-1,6-bisphosphatase 1 (Homo sapiens, UniProt P09467, R255A) (P09467 2-338 R255A limits assumed): as the sequence (P09467 2-338 D128A limits assumed) above, with A127D, R254A counted along it
# Chain of Fructose-1,6-bisphosphatase 1 (Homo sapiens, UniProt P09467, C93S) (P09467 2-338 C93S limits assumed): as the sequence (P09467 2-338 D128A limits assumed) above, with C92S, A127D counted along it
# Chain of Fructose-1,6-bisphosphatase 1 (Homo sapiens, UniProt P09467, Y259A) (P09467 2-338 Y259A limits assumed): as the sequence (P09467 2-338 D128A limits assumed) above, with A127D, Y258A counted along it
# Chain of Fructose-1,6-bisphosphatase 1 (Homo sapiens, UniProt P09467, C180S) (P09467 2-338 C180S limits assumed): as the sequence (P09467 2-338 D128A limits assumed) above, with A127D, C179S counted along it
structure (smiles),measurement,setting,value
c1ccc(SSc2ccccc2)cc1,IC50,[1],> 10000 nM
Cn1ccnc1SSc1nccn1C,IC50,[1],> 10000 nM
S=C(SSC(=S)N1CCOCC1)N1CCOCC1,IC50,[1],> 10000 nM
CN(C(=S)SSC(=S)N(C)c1ccc(-c2ccccc2)cc1)c1ccc(-c2ccccc2)cc1,IC50,[1],> 10000 nM
CCSSc1nccs1,IC50,[1],5390 nM
c1csc(SSc2nccs2)n1,Activity,[2],Toxic
same,inhibition in vivo at 25 mg/kg,[3],26%
same,IC50,[4],> 250000 nM
same,IC50,[5],75100 nM
same,IC50,[6],130 nM
same,IC50,[7],180 nM
same,inhibition in vivo at 25 mg/kg,[8],10.4%
same,Activity,[9],Toxic
same,IC50,[10],3100 nM
same,inhibition in vivo at 12.5 mg/kg,[11],24.5%
same,inhibition in vivo at 25 mg/kg,[12],22.7%
same,IC50,[13],90 nM
same,IC50,[14],270 nM
same,inhibition at 100 µM,[15],90%
same,IC50,[1],220 nM
same,IC50,[16],270 nM
same,IC50,[17],310 nM
same,IC50,[18],460 nM
same,IC50,[19],> 500000 nM
same,IC50,[20],190 nM
same,IC50,[21],630 nM
same,IC50,[22],180 nM
same,Time,[23],4 h
same,IC50,[24],160 nM
same,Activity,[25],Non-Toxic
same,inhibition in vivo at 25 mg/kg,[26],57%
C1CCc2sc(SSc3nc4c(s3)CCCC4)nc2C1,IC50,[5],20100 nM
same,inhibition in vivo at 50 mg/kg,[27],32%
same,IC50,[1],300 nM
same,Time,[23],6 h
CN1CCN(C(=S)SSC(=S)N2CCN(C)CC2)CC1,IC50,[1],> 10000 nM
CC(C)N(C(=S)SSC(=S)N(C(C)C)C(C)C)C(C)C,IC50,[1],> 10000 nM
Fc1ccc(SSc2nccs2)cc1,IC50,[1],2050 nM
c1ccc2sc(SSc3nc4ccccc4s3)nc2c1 [BENZOTHIAZYL DISULFIDE],IC50,[5],> 100000 nM
same,inhibition in vivo at 50 mg/kg,[27],54%
same,IC50,[1],310 nM
same,Time,[23],6 h
c1csc(SSC2CCCC2)n1,IC50,[1],> 10000 nM
c1csc(SSc2cccs2)c1,IC50,[1],12200 nM
CCN(CC)C(=S)SCSC(=S)N(CC)CC,IC50,[1],> 10000 nM
S=C(SSC(=S)N1CCCC1)N1CCCC1 [BIS(PYRROLIDINYLTHIOCARBONYL)DISULFIDE],IC50,[1],2280 nM
CN(C(=S)SSC(=S)N(C)c1ccccc1)c1ccccc1,IC50,[1],> 10000 nM
Clc1ccccc1SSc1nccs1,IC50,[5],64500 nM
same,inhibition in vivo at 50 mg/kg,[27],50%
same,IC50,[1],600 nM
same,Time,[23],6 h
S=C(SSC(=S)n1c2ccccc2c2ccccc21)n1c2ccccc2c2ccccc21,IC50,[1],> 10000 nM
CN(Cc1ccccc1)C(=S)SSC(=S)N(C)Cc1ccccc1,IC50,[1],> 10000 nM
Nc1nnc(SSc2ccc(Cl)cc2)s1,IC50,[1],1940 nM
Clc1nnc(SSc2nnc(Cl)s2)s1,IC50,[1],3320 nM
FC(F)(F)c1ccc(SSc2nccs2)cc1,IC50,[1],2500 nM
O=[N+]([O-])c1ccc2nc(SSc3nc4ccc([N+](=O)[O-])cc4s3)sc2c1,IC50,[1],> 10000 nM
S=C(SSC(=S)N1CCC1)N1CCC1,IC50,[1],> 10000 nM
Clc1ccc(SSc2ccc(Cl)cc2)cc1,IC50,[1],> 10000 nM
Nc1nnc(SSc2nnc(N)s2)s1,IC50,[5],> 100000 nM
same,inhibition in vivo at 50 mg/kg,[27],31%
same,IC50,[1],490 nM
Nc1ccc(SSc2nccs2)cc1,IC50,[1],7600 nM
S=C(SSC(=S)N1CCc2ccccc21)N1CCc2ccccc21,IC50,[1],> 10000 nM
S=C(SSC(=S)n1ncc2ccccc21)n1ncc2ccccc21,IC50,[1],> 10000 nM
